This data set is described as follows: degradation kinetics of 10% LAA solution under ultraviolet radiation. The data set is classed as physicochemical. As for the experimental part:
Comparative tests carried out by the inventors confirm the important paper of the reducing agent in the stabilization of antioxidants as per information obtained by Wrinkler B. S. in his work cited herein. A first test was carried out in order to determine the degradation kinetics of a 10% LAA solution in water-containing medium (m/v) under ultraviolet radiation, using a ultraviolet spectrophotometer, for 60 minutes.
A stoichiometric amount of the reducing agent of the oxidation reaction, that is, Glutathion, was added to the previous post-irradiated solution. The resultant solution was irradiated with ultraviolet radiation for further 60 minutes. By analyzing the remaining LAA, it could be noticed that 9.50% (m/v) thereof was still present. Therefore, the degradation of the LAA is dramatically minimized after the reducing agent is added.
In a third test, a 10% LAA solution was prepared in a water-containing medium (m/v) with a stoichiometric amount of the reducing agent Glutathion. […] However, the use of said compound in stoichiometric amounts still presents the already mentioned disadvantages.

This is an account of results in patent US7115253B1, “Process for stabilizing antioxidant compounds, and aqueous compositions” (Industria E Comercio De Cosmeticos Natura Ltda., priority 1999, dated 2006).

For the molecule `O=C1O[C@H]([C@@H](O)CO)C(O)=C1O` [LAA, levogyrous ascorbic acid], the “remaining concentration of molecular LAA” value (10% LAA solution in water-containing medium, ultraviolet radiation 60 minutes, no reducing agent) is on record as “about 9.58 % (m/v)”. In addition, the “remaining LAA” value runs as follows: (10% LAA solution with stoichiometric amount of Glutathion, ultraviolet radiation 60 minutes) 9.98 % (m/v); (stoichiometric Glutathion added to the post-irradiated solution, ultraviolet radiation for further 60 minutes) 9.50 % (m/v).
